Experimental data published in patent US8476265B2, “Compounds-801” (AstraZeneca AB, priority 2010, dated 2013).

Columns and labels:
[1] = target: T1, human muscarinic acetylcholine M3 receptor (Homo sapiens, UniProt P20309); assay: Muscarinic 3 receptor binding assay ([3H]NMS competition, SPA), pIC50; conditions: [3H]NMS 0.1 nM, CHO-K1 cell membranes expressing human M3 receptor
T1 construct: expressed in transfected cells; host or cells: CHO-K1 (Chinese Hamster Ovary) cell membranes
In short: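 Competition of [3H]NMS (0.1 nM, quarter Kd) binding to CHO-K1 membranes expressing human M3, SPA format, in 20 mM HEPES pH 7.4, 5 mM MgCl2, 0.1% BSA, 1% DMSO. Incubated 16 h at room temperature; non-specific binding with 1 μM atropine; pIC50 from specific binding.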

[2] = target: T2, Adrenergic β2 (Homo sapiens, UniProt P07550); assay: Adrenergic β2 mediated cAMP production in H292 cells (AlphaScreen), concentration response; format: cell-based; conditions: for EC50: 60 min, 300 μM rolipram, read-out: β2 pEC50 (converted); for β2 Intrinsic Activity: fraction relative to the maximum activity determined for formoterol
T2 construct: Adherent H292 cells are removed from tissue culture flasks by treatment with Accutase™ cell detachment solution; endogenous in cells; host or cells: H292 cells
In short: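 H292 cells seeded overnight, pretreated 10 min with rolipram (300 μM final), then exposed to compounds 60 min at room temperature in HBSS/10 mM HEPES pH 7.4/5 mM glucose, 1% DMSO. Lysate cAMP quantified by AlphaScreen against a standard curve; four-parameter fit gives pEC50 and intrinsic activity relative to formoterol maximum.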

T2 sequence (P07550 whole entry): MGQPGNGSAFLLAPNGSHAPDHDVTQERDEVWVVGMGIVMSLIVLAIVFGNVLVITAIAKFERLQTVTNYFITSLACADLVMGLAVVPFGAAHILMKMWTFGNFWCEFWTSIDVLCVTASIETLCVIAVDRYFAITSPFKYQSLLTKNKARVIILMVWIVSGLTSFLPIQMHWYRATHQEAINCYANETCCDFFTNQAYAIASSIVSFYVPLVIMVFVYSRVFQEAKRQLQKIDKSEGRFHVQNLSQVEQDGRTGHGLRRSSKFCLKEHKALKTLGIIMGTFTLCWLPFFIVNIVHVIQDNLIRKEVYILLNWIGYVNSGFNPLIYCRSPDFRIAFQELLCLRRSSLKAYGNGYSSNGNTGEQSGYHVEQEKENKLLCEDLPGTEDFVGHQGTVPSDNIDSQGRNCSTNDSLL
T1 sequence (P20309 whole entry): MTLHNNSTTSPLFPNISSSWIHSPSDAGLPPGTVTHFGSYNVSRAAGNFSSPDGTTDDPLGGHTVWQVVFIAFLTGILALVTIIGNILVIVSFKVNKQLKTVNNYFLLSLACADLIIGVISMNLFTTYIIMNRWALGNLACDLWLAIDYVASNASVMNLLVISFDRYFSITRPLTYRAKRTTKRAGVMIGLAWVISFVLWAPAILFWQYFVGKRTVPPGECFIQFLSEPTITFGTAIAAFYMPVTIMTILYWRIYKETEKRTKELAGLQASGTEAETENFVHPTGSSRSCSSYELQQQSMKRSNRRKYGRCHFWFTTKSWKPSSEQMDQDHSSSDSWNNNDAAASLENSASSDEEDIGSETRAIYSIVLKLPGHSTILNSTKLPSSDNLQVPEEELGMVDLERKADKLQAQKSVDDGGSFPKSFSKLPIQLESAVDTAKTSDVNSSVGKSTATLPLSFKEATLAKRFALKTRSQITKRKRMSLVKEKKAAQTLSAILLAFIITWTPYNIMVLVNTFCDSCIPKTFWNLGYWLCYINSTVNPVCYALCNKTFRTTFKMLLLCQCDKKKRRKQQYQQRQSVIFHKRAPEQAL

SMILES | IC50 [1] | EC50 [2] | β2 Intrinsic Activity [2]
CC(C)c1nc(C(=O)N2CCOC3(CCN(Cc4cccc(CCOCCC(=O)N(CCNCCc5ccc(O)c6c5OCC(=O)N6)CC(F)F)c4F)CC3)C2)cs1 [Example 73, N-(2,2-Difluoroethyl)-3-(2-fluoro-3-((4-(2-isopropylthiazole-4-carbonyl)-1-oxa-4,9-diazaspiro[5.5]undecan-9-yl)methyl)phenethoxy)-N-(2-(2-(5-hydroxy-3-oxo-3,4-dihydro-2H-benzo[b][1,4]oxazin-8-yl)ethylamino)ethyl)propanamide ditrifluoroacetate] | 0.1 nM | 25.1 nM | 1.1
CCN(CCNCCc1ccc(O)c2[nH]c(=O)sc12)C(=O)CCOCCc1ccc(CCN2CCC3(CC2)CN(C(=O)c2csc(C(C)C)n2)CCO3)cc1 [Example 1, N-Ethyl-N-(2-(2-(4-hydroxy-2-oxo-2,3-dihydrobenzo[d]thiazol-7-yl)ethylamino)ethyl)-3-(4-(2-(4-(2-isopropylthiazole-4-carbonyl)-1-oxa-4,9-diazaspiro[5.5]undecan-9-yl)ethyl)phenethoxy)propanamide ditrifluoroacetate] | 2 nM | 31.6 nM | 0.7
CC(C)c1nc(C(=O)N2CCOC3(CCN(CCc4cccc(CCOCCC(=O)N(CCNCCc5ccc(O)c6c5OCC(=O)N6)Cc5ccccc5)c4)CC3)C2)cs1 [Example 41, N-Benzyl-N-(2-(2-(5-hydroxy-3-oxo-3,4-dihydro-2H-benzo[b][1,4]oxazin-8-yl)ethylamino)ethyl)-3-(3-(2-(4-(2-isopropylthiazole-4-carbonyl)-1-oxa-4,9-diazaspiro[5.5]undecan-9-yl)ethyl)phenethoxy)propanamide ditrifluoroacetate] | 0.794 nM | 20 nM | 0.9
COCCN(CCNCCc1ccc(O)c2c1OCC(=O)N2)C(=O)CCOCCc1cccc(CN2CCC3(CC2)CN(C(=O)c2csc(C(C)C)n2)CCO3)c1Cl [Example 70, 3-(2-Chloro-3-((4-(2-isopropylthiazole-4-carbonyl)-1-oxa-4,9-diazaspiro[5.5]undecan-9-yl)methyl)phenethoxy)-N-(2-(2-(5-hydroxy-3-oxo-3,4-dihydro-2H-benzo[b][1,4]oxazin-8-yl)ethylamino)ethyl)-N-(2-methoxyethyl)propanamide ditrifluoroacetate] | 0.126 nM | 50.1 nM | 1.0
CCN(CCNCCc1ccc(O)c2[nH]c(=O)sc12)C(=O)CCOCCc1csc(CN2CCC3(CC2)CN(C(=O)c2csc(C(C)C)n2)CCO3)c1 [Example 48, N-Ethyl-N-(2-(2-(4-hydroxy-2-oxo-2,3-dihydrobenzo[d]thiazol-7-yl)ethylamino)ethyl)-3-(2-(5-((4-(2-isopropylthiazole-4-carbonyl)-1-oxa-4,9-diazaspiro[5.5]undecan-9-yl)methyl)thiophen-3-yl)ethoxy)propanamide ditrifluoroacetate] | 0.2 nM | 200 nM | 0.9
CC(C)c1nc(C(=O)N2CCOC3(CCN(Cc4cccc(CCOCCC(=O)N(CCNCCc5ccc(O)c6c5OCC(=O)N6)CCC(F)(F)F)c4F)CC3)C2)cs1 [Example 20, 3-(2-Fluoro-3-((4-(2-isopropylthiazole-4-carbonyl)-1-oxa-4,9-diazaspiro[5.5]undecan-9-yl)methyl)phenethoxy)-N-(2-(2-(5-hydroxy-3-oxo-3,4-dihydro-2H-benzo[b][1,4]oxazin-8-yl)ethylamino)ethyl)-N-(3,3,3-trifluoropropyl)propanamide ditrifluoroacetate] | 0.2 nM | 79.4 nM | 1.1
CCN(CCNCCc1ccc(O)c2[nH]c(=O)sc12)C(=O)CCOCCc1cc(CN2CCC3(CC2)CN(C(=O)c2csc(C(C)C)n2)CCO3)ccc1F [Example 43, N-Ethyl-3-(2-fluoro-5-((4-(2-isopropylthiazole-4-carbonyl)-1-oxa-4,9-diazaspiro[5.5]undecan-9-yl)methyl)phenethoxy)-N-(2-(2-(4-hydroxy-2-oxo-2,3-dihydrobenzo[d]thiazol-7-yl)ethylamino)ethyl)propanamide ditrifluoroacetate] | 1 nM | 398 nM | 0.9
CC(C)c1nc(C(=O)N2CCOC3(CCN(Cc4cccc(CCOCCC(=O)N(CCNCCc5ccc(O)c6c5OCC(=O)N6)[C@H](C)C(C)(C)C)c4F)CC3)C2)cs1 [Example 19, (R)—N-(3,3-Dimethylbutan-2-yl)-3-(2-fluoro-3-((4-(2-isopropylthiazole-4-carbonyl)-1-oxa-4,9-diazaspiro[5.5]undecan-9-yl)methyl)phenethoxy)-N-(2-(2-(5-hydroxy-3-oxo-3,4-dihydro-2H-benzo[b][1,4]oxazin-8-yl)ethylamino)ethyl)propanamide ditrifluoroacetate] | 0.631 nM | 50.1 nM | 0.9
CCCCN(CCNCCc1ccc(O)c2c1OCC(=O)N2)C(=O)CCOCCc1ccc(CCN2CCC3(CC2)CN(C(=O)c2csc(C(C)C)n2)CCO3)cc1 [Example 4, N-Butyl-N-(2-(2-(5-hydroxy-3-oxo-3,4-dihydro-2H-benzo[b][1,4]oxazin-8-yl)ethylamino)ethyl)-3-(4-(2-(4-(2-isopropylthiazole-4-carbonyl)-1-oxa-4,9-diazaspiro[5.5]undecan-9-yl)ethyl)phenethoxy)propanamide ditrifluoroacetate] | 0.794 nM | 25.1 nM | 0.8
CC(C)c1nc(C(=O)N2CCOC3(CCN(Cc4cccc(CCOCCC(=O)N(CCNCCc5ccc(O)c6c5OCC(=O)N6)C5CCCCCC5)c4F)CC3)C2)cs1 [Example 7, N-Cycloheptyl-3-(2-fluoro-3-((4-(2-isopropylthiazole-4-carbonyl)-1-oxa-4,9-diazaspiro[5.5]undecan-9-yl)methyl)phenethoxy)-N-(2-(2-(5-hydroxy-3-oxo-3,4-dihydro-2H-benzo[b][1,4]oxazin-8-yl)ethylamino)ethyl)propanamide ditrifluoroacetate] | 0.631 nM | 39.8 nM | 1.0
CCc1nc(C(=O)N2CCOC3(CCN(Cc4cccc(CCOCCC(=O)N(CCNCCc5ccc(O)c6c5OCC(=O)N6)C5CCCC5)c4Cl)CC3)C2)cs1 [Example 33, 3-(2-Chloro-3-((4-(2-ethylthiazole-4-carbonyl)-1-oxa-4,9-diazaspiro[5.5]undecan-9-yl)methyl)phenethoxy)-N-cyclopentyl-N-(2-(2-(5-hydroxy-3-oxo-3,4-dihydro-2H-benzo[b][1,4]oxazin-8-yl)ethylamino)ethyl)propanamide ditrifluoroacetate] | 0.398 nM | 15.8 nM | 1.0
CCCCN(CCNCCc1ccc(O)c2c1OCC(=O)N2)C(=O)CCOCCc1cccc(CN2CCC3(CC2)CN(C(=O)c2csc(CC)n2)CCO3)c1Cl [Example 32, N-Butyl-3-(2-chloro-3-((4-(2-ethylthiazole-4-carbonyl)-1-oxa-4,9-diazaspiro[5.5]undecan-9-yl)methyl)phenethoxy)-N-(2-(2-(5-hydroxy-3-oxo-3,4-dihydro-2H-benzo[b][1,4]oxazin-8-yl)ethylamino)ethyl)propanamide ditrifluoroacetate] | 0.398 nM | 15.8 nM | 0.9
CCc1nc(C(=O)N2CCOC3(CCN(CCc4ccc(CCOCCC(=O)N(CCCCCO)CCNCCc5ccc(O)c6[nH]c(=O)sc56)cc4)CC3)C2)cs1 [Example 75, 3-(4-(2-(4-(2-Ethylthiazole-4-carbonyl)-1-oxa-4,9-diazaspiro[5.5]undecan-9-yl)ethyl)phenethoxy)-N-(2-(2-(4-hydroxy-2-oxo-2,3-dihydrobenzo[d]thiazol-7-yl)ethylamino)ethyl)-N-(5-hydroxypentyl)propanamide diformate] | 0.501 nM | 50.1 nM | 0.9
CC(C)c1nc(C(=O)N2CCOC3(CCN(Cc4cccc(CCOCCC(=O)N(CCNCCc5ccc(O)c6c5OCC(=O)N6)Cc5ccccc5)c4F)CC3)C2)cs1 [Example 8, N-Benzyl-3-(2-fluoro-3-((4-(2-isopropylthiazole-4-carbonyl)-1-oxa-4,9-diazaspiro[5.5]undecan-9-yl)methyl)phenethoxy)-N-(2-(2-(5-hydroxy-3-oxo-3,4-dihydro-2H-benzo[b][1,4]oxazin-8-yl)ethylamino)ethyl)propanamide ditrifluoroacetate] | 0.251 nM | 39.8 nM | 1.1
CCCC[C@@H](C)N(CCNCCc1ccc(O)c2c1OCC(=O)N2)C(=O)CCOCCc1ccc(CCN2CCC3(CC2)CN(C(=O)c2csc(C)n2)CCO3)cc1 [Example 6, (R)—N-(Hexan-2-yl)-N-(2-(2-(5-hydroxy-3-oxo-3,4-dihydro-2H-benzo[b][1,4]oxazin-8-yl)ethylamino)ethyl)-3-(4-(2-(4-(2-methylthiazole-4-carbonyl)-1-oxa-4,9-diazaspiro[5.5]undecan-9-yl)ethyl)phenethoxy)propanamide ditrifluoroacetate] | 0.1 nM | 31.6 nM | 1.0
